# According to patent US4359531A, “Production of isomaltulose” (Talres Development (N.A.) N.V., priority 1979, dated 1982):
# Tested on: isomaltulose-synthesising activity of the immobilized cells
# Assay: Effect of chloramphenicol in the sucrose substrate on immobilized cells
# Type: cell-based, Erwinia rhapontici
# Conditions: 0.1 g/l in 55% (w/v) sucrose
# From the text: This hypothesis was confirmed when 0.1 g/l of chloramphenicol, which inhibits protein synthesis, was included in the 55% (w/v) sucrose used as substrate.
smiles,measurement,setting,value
O=C(N[C@H](CO)[C@H](O)c1ccc([N+](=O)[O-])cc1)C(Cl)Cl [chloramphenicol],isomaltulose-synthesising activity in presence of chloramphenicol,,unaffected
same,cell division in presence of chloramphenicol,even when nutrients supplied,no cell division took place
